Results as given in article PMC6934184, “Selective DNA-PKcs inhibition extends the therapeutic index of localized radiotherapy and chemotherapy” (The Journal of Clinical Investigation, 2019).

Biological target: T1, BRAF (Homo sapiens, UniProt P15056)
T1 construct: purchased Thermo Fisher Scientific (Life Technologies) SelectScreen
Assay: SelectScreen Z'LYTE
Type: biochemical
Conditions: ATP 100 µM
Outline: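 Compound tested in SelectScreen activity assays, Z'LYTE for CSF1R, CDK1/cyclin B and MAP2K6 and Adapta for CAMK1. ATP for CAMK1 was listed as 10, and Km app was used for CSF1R. Results are expressed in percent.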

T1 sequence (P15056 whole entry): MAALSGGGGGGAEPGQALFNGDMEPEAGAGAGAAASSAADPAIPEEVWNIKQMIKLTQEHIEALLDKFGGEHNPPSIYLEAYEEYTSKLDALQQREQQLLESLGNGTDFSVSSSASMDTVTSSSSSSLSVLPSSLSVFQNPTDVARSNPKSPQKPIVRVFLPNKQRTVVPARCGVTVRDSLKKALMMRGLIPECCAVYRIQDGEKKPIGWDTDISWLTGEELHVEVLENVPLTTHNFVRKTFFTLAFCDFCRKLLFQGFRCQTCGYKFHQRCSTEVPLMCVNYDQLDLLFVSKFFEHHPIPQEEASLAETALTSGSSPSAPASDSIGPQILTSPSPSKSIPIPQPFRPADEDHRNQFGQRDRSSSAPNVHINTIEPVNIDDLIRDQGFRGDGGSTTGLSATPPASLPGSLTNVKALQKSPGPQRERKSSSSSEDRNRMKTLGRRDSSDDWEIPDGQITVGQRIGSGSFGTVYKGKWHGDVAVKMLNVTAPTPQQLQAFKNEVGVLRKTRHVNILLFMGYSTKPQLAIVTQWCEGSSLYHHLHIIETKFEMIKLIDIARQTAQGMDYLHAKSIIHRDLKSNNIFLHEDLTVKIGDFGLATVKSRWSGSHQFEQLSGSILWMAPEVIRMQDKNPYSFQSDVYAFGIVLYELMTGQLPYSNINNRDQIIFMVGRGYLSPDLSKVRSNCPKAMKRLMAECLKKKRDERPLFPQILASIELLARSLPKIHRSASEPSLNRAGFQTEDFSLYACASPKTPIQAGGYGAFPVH

`CN(C(=O)CN1CCOCC1)c1ccc2sc3c(-c4cccc5c(=O)cc(N6CC7CCC(C6)O7)oc45)cccc3c2c1` [NU5455] was tested. Which inhibition at 1 µM did it give?
The inhibition at 1 µM was 9.9%.
